Source: patent US9872493B2, “Method for promoting plant growth” (SUMITOMO CHEMICAL COMPANY, LIMITED, priority 2012, dated 2018)

Legend:
[1] = test system: Rice (Variety: Nipponbare); experiment: Test for evaluating promotion of root growth by hydroponics of rice (Test Examples 1-3); type: in vivo
Protocol: Rice (Variety: Nipponbare)
(§1) A DMSO solution, which contained one of the compounds 14, 18, 21, 23, 26, 28, 29, 30, 35, 36, 37, 39 and 40 of the present invention at a concentration of 100,000 ppm, was added to Hoagland hydroponic solution (Hoagland and Arnon, California Agricultural Experiment Station 1950 Circular 347 pp. 34) of ¼-fold concentration at a volume ratio of 1/10,000. In this manner, hydroponic solutions containing one of the compounds 14, 18, 21, 23, 26, 28, 29, 30, 35, 36, 37, 39 and 40 of the present invention at 10 ppm were prepared respectively. As an untreated control plot, a hydroponic solution obtained by adding DMSO to Hoagland hydroponic solution of ¼-fold concentration at a volume ratio of 1/10,000 was used.
(§2) Rice seeds were soaked in a 1% aqueous sodium hypochlorite solution for 10 minutes, then soaked in a 70% ethanol solution for surface sterilization, and then washed with distilled water. The sterilized seeds were soaked in a hydroponic solution containing the test compound described above at 10 ppm and incubated in a dark place for 3 days at 28° C. to perform treatment for hastening germination.
(§3) Thereafter, 30 ml of hydroponic solution containing the test compound at 10 ppm was dispensed in a plastic tube (diameter of 20 mm×height of 113 mm) of which the side was covered with cardboard to block light. A float prepared using a styrene board and vinyl mesh was floated, and the rice seeds that had undergone the treatment for hastening germination were placed on the float on the surface of the hydroponic solution. The seeds were cultivated for 3 days at 26° C., an illuminance of 4,000 lux of the top surface of the tube, a humidity of 50%, and a day length of 16 hours.
The nursery plants of rice obtained after cultivating were measured in terms of the length of seminal root by using WinRHIZO system (manufactured by Regent Instruments Inc). For each test plot, an average of the measured values of the seminal root of 4 or 5 individuals were determined.
as §1, with “compounds 7, 8, 9, 10, 12, 17, 20,” for “compounds 14, 18,”, “21, 25, 27,” for “21, 23, 26,”, “30, 34,” for “30,”, “37, 38,” for “37,”, “of 10,000” for “of 100,000”, “at 1” for “at 10”
as §2, with “at 1” for “at 10”
as §3, with “1” for “10”
The nursery plants of rice obtained after cultivation were measured in terms of the length of seminal root by using WinRHIZO system (manufactured by Regent Instruments Inc). […]

Nicotiana benthamiana = experiment: Test for evaluating growth promotion under low-temperature stress by hydroponics of Nicotiana benthamiana (Test Examples 4-6); type: in vivo; conditions: 7 days at 1.5±1.0° C. low-temperature stress, then 3 days at 22° C., green leaf area vs untreated control, read-out: value of a relative leaf area (equation (1)); for relative green leaf area after low-temperature stress at 1 ppm: compound at 1 ppm; for relative green leaf area after low-temperature stress at 0.1 ppm: compound at 0.1 ppm; for relative green leaf area after low-temperature stress at 10 ppm: compound at 10 ppm
Protocol: A DMSO solution, which contained one of the compounds 5, 14, 22, 23, 24, 25, 26, 28, 30, 31, 32, 33, 34, 35, 38, 39 and 40 of the present invention at a concentration of 10,000 ppm, was prepared. The DMSO solution of the compound of the present invention was added at a volume ratio of 1/1,000 to the Murashige•Scoog medium of a ½-fold concentration (a medium containing 2.3 g of mixed salts (manufactured by Wako Pure Chemical Industries, Ltd.), 200 mg of Myo-inositol (manufactured by Sigma-Aldrich Co. LLC.), 2 mg of nicotinic acid (manufactured by Wako Pure Chemical Industries, Ltd.), 2 mg of pyridoxine hydrochloride (manufactured by Wako Pure Chemical Industries, Ltd.), 20 mg of thiamine hydrochloride (manufactured by Wako Pure Chemical Industries, Ltd.), 20 g of sucrose (manufactured by Wako Pure Chemical Industries, Ltd.), and 1 g of MES (manufactured by DOJINDO LABORATORIES) per 1 L of water and having pH adjusted to 5.8), thereby preparing a medium containing the compound of the present invention at a concentration of 10 ppm.
Seeds of Nicotiana benthamiana were seeded in the 5 μL of the medium and cultured overnight at 22° C. Thereafter, 45 μL of the medium containing the compound of the present invention at a concentration of 10 ppm was added thereto, and the seeds are cultivated for 7 days at 22° C., an illuminance of 4,000 lux, and a day length of 16 hours, thereby the nursery plants raised from the Nicotiana benthamiana were treated with the compound.
Moreover, instead of the above medium a test plot, which was obtained by performing the same treatment by using a medium prepared by adding DMSO to the Murashige•Scoog medium of ½-fold concentration at a volume ratio of 1/1,000, was used as a control plot not treated with the compound.
The nursery plants of the Nicotiana benthamiana treated with the compound were subjected to low-temperature treatment by being cultivated for 7 days at 1.5±1.0° C., an illuminance of 2,000 lux, and a day length of 16 hours.
The nursery plants of the Nicotiana benthamiana having undergone the low-temperature stress treatment were cultivated for 3 days at 22° C., an illuminance of 4,000 lux, and a day length of 16 hours. Thereafter, the area of green leaf was quantified by Scanalyzer HTS (manufactured by LemnaTec GmbH). Moreover, the value of the control plot not treated with the compound that had not yet been subjected to the low-temperature stress treatment was measured in the same manner. A value of a relative leaf area was calculated based on the following equation (1), and if the value of a relative leaf area was 5 or greater, the compound was evaluated to have a mitigating effect. As a result of the evaluation, it was confirmed that when the plant was treated with one of the compounds 5, 14, 22, 23, 24, 25, 26, 28, 30, 31, 32, 33, 34, 35, 38, 39 and 40 of the present invention at 10 ppm, the value of a relative leaf area was 5 or greater, compared to the area of green leaf of the control plot not treated with compound. Accordingly, it was confirmed that the treatment using the compound of the present invention brings about a growth promotion effect. Relative leaf area=100*(a green area of a plot treated with the compound of the present invention−a green area of a control plot not treated with the compound of the present invention)/(a green area of a control plot not treated with the compound of the present invention that has not yet been subjected to low-temperature stress treatment−a green area of a control plot not treated with the compound of the present invention) Equation (1): […]
A DMSO solution, which contained one of the compounds 6, 7, 8, 11, 12, 15, 19, 23, 24, 25, 28, 30, 31, 33, 34, 36, 37, 38 and 39 of the present invention at a concentration of 1,000 ppm, was prepared. […]

Row | SMILES | length of seminal root compared with the untreated control plot (in words) ([1]; 0.1 ppm) | relative green leaf area after low-temperature stress at 1 ppm (Nicotiana benthamiana) | length of seminal root compared with the untreated control plot (in words) ([1]; 1 ppm) | relative green leaf area after low-temperature stress at 0.1 ppm (Nicotiana benthamiana) | length of seminal root compared with the untreated control plot (in words) ([1]; 10 ppm) | relative green leaf area after low-temperature stress at 10 ppm (Nicotiana benthamiana)
1 | NC(=O)c1csc2cccc(C(F)(F)F)c12 [Compound 19] | obviously longer | ≥ 5% |  |  |  | 
2 | Cc1sc2ccccc2c1C(=O)O [Compound 20] | obviously longer |  | obviously longer | ≥ 5% |  | 
3 | NC(=O)c1c(C(F)(F)F)sc2ccccc12 [Compound 23] |  | ≥ 5% |  |  | obviously longer | ≥ 5%
4 | O=C(Nc1ccccc1)c1c(C(F)(F)F)sc2ccccc12 [Compound 25] |  | ≥ 5% | obviously longer |  |  | ≥ 5%
5 | O=C(NCc1ccccc1)c1c(C(F)(F)F)sc2ccccc12 [Compound 26] | obviously longer |  |  | ≥ 5% | obviously longer | ≥ 5%
6 | COC(=O)c1csc2cc(C(F)(F)F)ccc12 [Compound 28] | obviously longer | ≥ 5% | obviously longer | ≥ 5% | obviously longer | ≥ 5%
7 | CCOC(=O)c1csc2cc(C(F)(F)F)ccc12 [Compound 29] | obviously longer |  | obviously longer | ≥ 5% | obviously longer | 
8 | NC(=O)c1csc2cc(C(F)(F)F)ccc12 [Compound 30] | obviously longer | ≥ 5% | obviously longer | ≥ 5% | obviously longer | ≥ 5%
9 | CNC(=O)c1csc2cc(C(F)(F)F)ccc12 [Compound 31] | obviously longer | ≥ 5% |  | ≥ 5% |  | ≥ 5%
10 | O=C(O)c1csc2c(C(F)(F)F)cccc12 [Compound 34] | obviously longer | ≥ 5% | obviously longer | ≥ 5% |  | ≥ 5%
11 | COC(=O)c1csc2c(C(F)(F)F)cccc12 [Compound 35] | obviously longer |  | obviously longer | ≥ 5% | obviously longer | ≥ 5%
12 | CCOC(=O)c1csc2c(C(F)(F)F)cccc12 [Compound 36] | obviously longer | ≥ 5% | obviously longer | ≥ 5% | obviously longer | 
13 | NC(=O)c1csc2c(C(F)(F)F)cccc12 [Compound 37] | obviously longer | ≥ 5% | obviously longer |  | obviously longer | 
14 | CNC(=O)c1csc2c(C(F)(F)F)cccc12 [Compound 38] | obviously longer | ≥ 5% | obviously longer |  |  | ≥ 5%
15 | O=C(Nc1ccccc1)c1csc2c(C(F)(F)F)cccc12 [Compound 39] | obviously longer | ≥ 5% | obviously longer |  | obviously longer | ≥ 5%
